Test results taken from patent publication EP0465716A1, “Optically active thiazetoquino-line-3-carboxylic acid compound, method for preparation thereof, and a pharmaceutical composition comprising the same” (priority 1990, dated 1992).
Values after ≈ are worked out from the molar mass of the structure shown.

Experiments:
[1] = test system: Escherichia coli NIHJ JC-2; assay: MIC, twofold agar dilution method (standard laboratory strain); format: cell-based; conditions: NIHJJC2; Escherichia coli NIHJ JC-2, Gram -; 10^6 cfu/ml; 18 hrs at 37 °C
Experimental: (§1) Overnight cultures in Mueller-Hinton broth were suspended by buffered saline gelatin. One loopful of the bacterial suspension (10⁶ or 10⁸ colony-forming units/ml) was incubated onto the plates containing test compounds. The plates were incubated for 18 hrs at 37 °C. The MIC was defined by the lowest concentration of the drug that inhibited visible growth of bacteria.

[2] = test system: Serratia marcescens IAM 1184; assay: as above; format: cell-based; conditions: IAM1184; Serratia marcescens IAM 1184, Gram -; 10^6 cfu/ml; 18 hrs at 37 °C
Experimental: as §1

[3] = test system: Pseudomonas aeruginosa IFO 3445; assay: as above; format: cell-based; conditions: IFO3445; Pseudomonas aeruginosa IFO 3445, Gram -; 10^6 cfu/ml; 18 hrs at 37 °C
Experimental: as §1

[4] = test system: Staphylococuss aureus FDA 209PJC-1; assay: as above; format: cell-based; conditions: Staphylococuss aureus FDA 209PJC-1, Gram +; 10^6 cfu/ml; 18 hrs at 37 °C
Experimental: as §1

Enterobacter cloacae 963 = assay: as above; format: cell-based; conditions: Enterobacter cloacae 963, Gram -; 10^6 cfu/ml; 18 hrs at 37 °C
Experimental: as §1

[5] = test system: Klebsiella pneumoniae PCI-602; assay: as above; format: cell-based; conditions: PCI602; Klebsiella pneumoniae PCI-602, Gram -; 10^6 cfu/ml; 18 hrs at 37 °C; read-out: MIC
Experimental: as §1, with “Minimum inhibitory concentrations (MIC) of test compounds were determined by the twofold agar dilution method (Chemotherapy, 29(1), 76(1981)). Overnight” for “Overnight”

[6] = test system: Klebsiella pneumoniae HNR 828; assay: MIC, twofold agar dilution method (clinically isolated strain); format: cell-based; conditions: HNR828; Klebsiella pneumoniae HNR 828, Gram -; 10^6 cfu/ml; 18 hrs at 37 °C
Experimental: as §1

[7] = test system: Staphylococcuss aureus HPC 292; assay: as above; format: cell-based; conditions: Staphylococcuss aureus HPC 292, Gram +; 10^6 cfu/ml; 18 hrs at 37 °C
Experimental: as §1

[8] = test system: Klebsiella pneumoniae HNR 858; assay: as above; format: cell-based; conditions: HNR858; Klebsiella pneumoniae HNR 858, Gram -; 10^6 cfu/ml; 18 hrs at 37 °C
Experimental: as §1

[9] = test system: Staphylococcuss aureus HPC 527; assay: as above; format: cell-based; conditions: Staphylococcuss aureus HPC 527, Gram +; 10^6 cfu/ml; 18 hrs at 37 °C
Experimental: as §1

[10] = test system: Enterococcus faecalis HPC 948; assay: as above; format: cell-based; conditions: HPC948; Enterococcus faecalis HPC 948, Gram +; 10^6 cfu/ml; 18 hrs at 37 °C
Experimental: as §1

[11] = test system: Enterobacter cloacae HNR 1941; assay: as above; format: cell-based; conditions: HNR1941; Enterobacter cloacae HNR 1941, Gram -; 10^6 cfu/ml; 18 hrs at 37 °C
Experimental: as §1

[12] = test system: Serratia marcescens HNR 1792; assay: as above; format: cell-based; conditions: HNR1792; Serratia marcescens HNR 1792, Gram -; 10^6 cfu/ml; 18 hrs at 37 °C
Experimental: as §1

[13] = test system: Serratia marcescens HNR 1544; assay: as above; format: cell-based; conditions: HNR1544; Serratia marcescens HNR 1544, Gram -; 10^6 cfu/ml; 18 hrs at 37 °C
Experimental: as §1

[14] = test system: Enterobacter cloacae HNR 1939; assay: as above; format: cell-based; conditions: HNR1939; Enterobacter cloacae HNR 1939, Gram -; 10^6 cfu/ml; 18 hrs at 37 °C
Experimental: as §1

[15] = test system: Pseudomonas aeruginosa HNR 1489; assay: as above; format: cell-based; conditions: HNR1489; Pseudomonas aeruginosa HNR 1489, Gram -; 10^6 cfu/ml; 18 hrs at 37 °C
Experimental: as §1

[16] = test system: Pseudomonas aeruginosa HNR 1472; assay: as above; format: cell-based; conditions: HNR1472; Pseudomonas aeruginosa HNR 1472, Gram -; 10^6 cfu/ml; 18 hrs at 37 °C
Experimental: as §1

[17] = test system: Klebsiella pneumoniae HNR 869; assay: as above; format: cell-based; conditions: HNR869; Klebsiella pneumoniae HNR 869, Gram -; 10^6 cfu/ml; 18 hrs at 37 °C
Experimental: as §1

[18] = test system: Enterococcus faecalis HPC 984; assay: as above; format: cell-based; conditions: HPC984; Enterococcus faecalis HPC 984, Gram +; 10^6 cfu/ml; 18 hrs at 37 °C
Experimental: as §1

[19] = test system: Acinetobacter calcoaceticus HNR 916; assay: as above; format: cell-based; conditions: HNR916; Acinetobacter calcoaceticus HNR 916, Gram -; 10^6 cfu/ml; 18 hrs at 37 °C
Experimental: as §1

[20] = test system: Enterococcus faecalis HPC 975; assay: as above; format: cell-based; conditions: HPC975; Enterococcus faecalis HPC 975, Gram +; 10^6 cfu/ml; 18 hrs at 37 °C
Experimental: as §1

[21] = test system: Pseudomonas aeruginosa HNR 1537; assay: as above; format: cell-based; conditions: HNR1537; Pseudomonas aeruginosa HNR 1537, Gram -; 10^6 cfu/ml; 18 hrs at 37 °C
Experimental: as §1

[22] = test system: Staphylococcuss aureus HPC 308; assay: as above; format: cell-based; conditions: Staphylococcuss aureus HPC 308, Gram +; 10^6 cfu/ml; 18 hrs at 37 °C
Experimental: as §1

[23] = test system: Enterobacter cloacae HNR 1946; assay: as above; format: cell-based; conditions: HNR1946; Enterobacter cloacae HNR 1946, Gram -; 10^6 cfu/ml; 18 hrs at 37 °C
Experimental: as §1

[24] = test system: Serratia marcescens HNR 1767; assay: as above; format: cell-based; conditions: HNR1767; Serratia marcescens HNR 1767, Gram -; 10^6 cfu/ml; 18 hrs at 37 °C
Experimental: as §1

[25] = test system: Acinetobacter calcoaceticus HNR 939; assay: as above; format: cell-based; conditions: HNR939; Acinetobacter calcoaceticus HNR 939, Gram -; 10^6 cfu/ml; 18 hrs at 37 °C
Experimental: as §1

[26] = test system: Acinetobacter calcoaceticus HNR 904; assay: as above; format: cell-based; conditions: HNR904; Acinetobacter calcoaceticus HNR 904, Gram -; 10^6 cfu/ml; 18 hrs at 37 °C
Experimental: as §1

Male mice of ddY strain = assay: Convulsion inducing activity in combination with fenbufen; conditions: thirty minutes after fenbufen 100 mg/kg orally
Experimental: Male mice of ddY strain, 5 weeks old, were used. Fenbufen suspended in 0.5 % carboxymethylcellulose was administered orally at a dose of 100 mg/kg. After thirty minutes, test compounds suspended in 0.5 % carboxymethylcellulose were injected intraperitoneally (i.p.) at a dose of 100 mg/kg or 300 mg/kg.

Structure (SMILES)	MIC [1]	MIC [2]	MIC [3]	MIC [4]	MIC (Enterobacter cloacae 963)	MIC [5]	MIC [6]	MIC [7]	MIC [8]	MIC [9]	MIC [10]	MIC [11]	MIC [12]	MIC [13]	MIC [14]	MIC [15]	MIC [16]	MIC [17]	MIC [18]	MIC [19]	other results
CC1Sc2c(C(=O)O)c(=O)c3cc(F)c(N4CCNCC4)c(F)c3n21 (stereo not drawn) [Ref. Drug C, 6,8-difluoro-1-methyl-4-oxo-7-(1-piperazinyl)-1H,4H-[1,3]thiazeto[3,2-a]quinoline-3-carboxylic acid]	0.05 µg/mL (≈ 0.136 µM)	0.1 µg/mL (≈ 0.272 µM)	0.2 µg/mL (≈ 0.544 µM)	0.1 µg/mL (≈ 0.272 µM)	0.05 µg/mL (≈ 0.136 µM)	0.025 µg/mL (≈ 0.068 µM)	3.13 µg/mL (≈ 8.52 µM)	25 µg/mL (≈ 68 µM)	0.39 µg/mL (≈ 1.06 µM)	0.2 µg/mL (≈ 0.544 µM)	3.13 µg/mL (≈ 8.52 µM)	6.25 µg/mL (≈ 17 µM)	3.13 µg/mL (≈ 8.52 µM)	0.1 µg/mL (≈ 0.272 µM)	0.39 µg/mL (≈ 1.06 µM)	0.2 µg/mL (≈ 0.544 µM)	6.25 µg/mL (≈ 17 µM)	0.78 µg/mL (≈ 2.12 µM)	0.39 µg/mL (≈ 1.06 µM)	0.2 µg/mL (≈ 0.544 µM)	MIC [20]: 50 µg/mL (≈ 136 µM); MIC [21]: 12.5 µg/mL (≈ 34 µM); MIC [22]: 6.25 µg/mL (≈ 17 µM); MIC [23]: 0.39 µg/mL (≈ 1.06 µM); MIC [24]: 12.5 µg/mL (≈ 34 µM); MIC [25]: 3.13 µg/mL (≈ 8.52 µM); MIC [26]: 25 µg/mL (≈ 68 µM); Number of convulsion induced / Number of animals (Male mice of ddY strain; 100 mg/kg (i.p.)): 6 / 6
CC1Sc2c(C(=O)O)c(=O)c3cc(F)c(N4CCC(N)C4)cc3n21 (stereo not drawn) [Ref. Drug D, 7-(3-amino-1-pyrrolidinyl)-6-fluoro-1-methyl-4-oxo-1H,4H-[1,3]thiazeto[3,2-a]quinoline-3-carboxylic acid]	0.05 µg/mL (≈ 0.143 µM)	0.1 µg/mL (≈ 0.286 µM)	0.1 µg/mL (≈ 0.286 µM)	0.05 µg/mL (≈ 0.143 µM)	0.05 µg/mL (≈ 0.143 µM)	0.012 µg/mL (≈ 0.0343 µM)	50 µg/mL (≈ 143 µM)	> 100 µg/mL	0.39 µg/mL (≈ 1.12 µM)	0.1 µg/mL (≈ 0.286 µM)	3.13 µg/mL (≈ 8.96 µM)	> 100 µg/mL	50 µg/mL (≈ 143 µM)	0.1 µg/mL (≈ 0.286 µM)	0.39 µg/mL (≈ 1.12 µM)	0.1 µg/mL (≈ 0.286 µM)	50 µg/mL (≈ 143 µM)	3.13 µg/mL (≈ 8.96 µM)	0.39 µg/mL (≈ 1.12 µM)	0.39 µg/mL (≈ 1.12 µM)	MIC [20]: > 100 µg/mL; MIC [21]: 1.56 µg/mL (≈ 4.46 µM); MIC [22]: 25 µg/mL (≈ 71.6 µM); MIC [23]: 0.78 µg/mL (≈ 2.23 µM); MIC [24]: > 100 µg/mL; MIC [25]: 6.25 µg/mL (≈ 17.9 µM); MIC [26]: > 100 µg/mL; Number of convulsion induced / Number of animals (Male mice of ddY strain; 100 mg/kg (i.p.)): 0 / 6; Number of convulsion induced / Number of animals (Male mice of ddY strain; 300 mg/kg (i.p.)): 0 / 6
